# Patent US20150141342A1, “BLOOD BORNE miRNA SIGNATURE FOR THE ACCURATE DIAGNOSIS OF PANCREATIC DUCTAL ADENOCARCINOMA” (Indiana University Research and Technology Corp., priority 2013, published 2015)
# Tests used:
# COLO-357 cells = experiment: Matrigel transwell invasion assay, COLO-357; type: cell-based, human; conditions: COLO-357 transfected with miR-10b precursor, erlotinib 2 μM; for miR-10b's effects on combined EGF-TGF-β1 actions on invasion: 1 nM EGF + 0.5 nM TGF-β1, 20 h, SB505124 10 μM
# Description: (§1) Invasion and Migration Assays. miR-10b precursor and precursor control transfected cells (5×104) were plated in Matrigel pre-coated transwell chambers (BD Biosciences, San Jose, Calif.) and assays performed as previously reported. UO126 (1 μM) were from Alexis Biochemicals (San Diego, Calif.). Erlotinib (2 μM; Genentech, Inc., South San Francisco, Calif.), and LY294002 (10 μM; Calbiochem, San Diego, Calif.), were added to SF in the lower chamber, in the absence or presence of 1 nM EGF and/or 0.5 nM TGF-β1. Wound healing assays were performed as previously reported. Briefly, 24 hours after cell transfection with pre-miR-10b oligonucleotides, cells were serum starved overnight, and the monolayer was scratched with a 200 μL pipette tip generating two parallel wounds. Cells were then rinsed twice with HBSS and incubated for 24 h in SF media in the absence or presence of 1 nM EGF, 0.5 nM TGF-β1, or their combination, and migration was calculated as the percent change in the wound area.
# PANC-1 cells = experiment: Matrigel transwell invasion assay, PANC-1; type: cell-based, human; conditions: PANC-1 transfected with miR-10b precursor, erlotinib 2 μM; for miR-10b's effects on combined EGF-TGF-β1 actions on invasion: 1 nM EGF + 0.5 nM TGF-β1, 20 h, SB505124 10 μM
# Description: as §1
# [1] = 1 nM EGF, 20 h, LY294002 10 μM, UO126 1 μM
smiles,measurement,setting,value
Cc1cccc(-c2[nH]c(C(C)(C)C)nc2-c2ccc3c(c2)OCO3)n1 [SB505124],miR-10b's effects on combined EGF-TGF-β1 actions on invasion,COLO-357 cells,markedly attenuated
same,miR-10b's effects on combined EGF-TGF-β1 actions on invasion,PANC-1 cells,markedly attenuated
C#Cc1cccc(Nc2ncnc3cc(OCCOC)c(OCCOC)cc23)c1 [erlotinib],miR-10b's effects on combined EGF-TGF-β1 actions on invasion,COLO-357 cells,markedly attenuated
same,EGF-induced invasion in the presence of miR-10b,COLO-357 cells; [1],completely blocked
same,miR-10b's effects on combined EGF-TGF-β1 actions on invasion,PANC-1 cells,markedly attenuated
same,EGF-induced invasion in the presence of miR-10b,PANC-1 cells; [1],completely blocked
